Source: patent US9303018B2, “Inhibitors of leukotriene production” (Boehringer Ingelheim International GmbH, priority 2013, dated 2016)
pIC50: −log10 of the molar value.

Legend:
human LTA4 hydrolase = human LTA4 hydrolase (Homo sapiens (Human), UniProt P09960); experiment: LTA4H Enzyme assay (peptidase, Arg-AMC cleavage); format: biochemical; settings: LTA4H enzyme 1 nM, Arg-AMC substrate 50 μM, room temperature 1 h, fluorescence
Experimental: The compounds of the invention are assessed for the ability to interact with human LTA4 hydrolase in an enzymatic assay that measures the ability of the enzyme to cleave the peptide bond of arginyl-aminomethylcoumarin (Arg-AMC). LTA4H Enzyme (1 nM final), Arg-AMC substrate (50 μM final), and compound are combined in a reaction buffer (50 mM Tris-HCl (pH 7.5), 100 mM KCl, 0.5% bovine serum albumin) at room temperature for 1 h. The formation of product is assessed by measuring the fluorescence of aminomethylcoumarin product (excitation wavelength 380 nm/emission wavelength 460 nm).

[1] = test system: synthesis of LTB4 in human whole blood; experiment: LTB4 production inhibition assay in human whole blood (HWB); format: cell-based; settings: heparinized human whole blood, calcimycin 20 μM stimulated, plasma LTB4 by HTRF
Experimental: The compounds of the invention are additionally tested in a human whole blood (HWB) assay to determine their ability to inhibit the synthesis of LTB4 in a cellular system. Compounds are combined with heparinized human whole blood and incubated for 15 minutes at 37° C. Calcimycin (20 μM final, prepared in phosphate-buffered saline, pH 7.4) is then added and the mixture is incubated for another 30 minutes at 37° C. The samples are centrifuged for 5 min at low speed (1500×g) and the plasma layer is removed. Plasma LTB4 concentrations are then measured using an antibody-based homogenous time-resolved fluorescence method (CisBio, Bedford, Mass.).

Sequence of human LTA4 hydrolase (P09960 whole entry): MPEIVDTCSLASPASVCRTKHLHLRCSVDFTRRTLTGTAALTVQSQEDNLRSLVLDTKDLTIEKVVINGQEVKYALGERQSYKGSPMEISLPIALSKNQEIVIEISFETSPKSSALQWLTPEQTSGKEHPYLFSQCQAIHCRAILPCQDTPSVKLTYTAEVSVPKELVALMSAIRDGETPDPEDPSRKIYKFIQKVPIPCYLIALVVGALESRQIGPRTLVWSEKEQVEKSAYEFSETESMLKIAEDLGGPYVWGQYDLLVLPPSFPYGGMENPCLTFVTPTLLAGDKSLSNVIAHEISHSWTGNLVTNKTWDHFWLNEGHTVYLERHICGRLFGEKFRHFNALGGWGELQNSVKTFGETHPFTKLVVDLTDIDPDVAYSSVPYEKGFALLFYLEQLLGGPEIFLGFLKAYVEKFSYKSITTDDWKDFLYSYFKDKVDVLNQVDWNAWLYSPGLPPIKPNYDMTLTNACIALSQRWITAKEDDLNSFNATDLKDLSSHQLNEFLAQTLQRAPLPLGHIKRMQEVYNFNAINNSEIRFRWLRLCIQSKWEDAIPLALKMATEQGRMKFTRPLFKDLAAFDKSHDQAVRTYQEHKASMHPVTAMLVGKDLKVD

Compound	pIC50 (human LTA4 hydrolase)	pIC50 [1]
CN(C(=O)CO)[C@@H]1CCN(Cc2cnc3cc(Oc4ccc(-c5ccn[nH]5)cn4)ccc3c2)C1 [Example 12, 2-Hydroxy-N-methyl-N-((R)-1-{7-[5-(2H-pyrazol-3-yl)-pyridin-2-yloxy]-quinolin-3-ylmethyl}-pyrrolidin-3-yl)-acetamide]	8.74	6.74
O[C@@H]1CCN(Cc2cnc3cc(Oc4ccc(-c5ccn[nH]5)cn4)ccc3c2)C1 [Example 17, (R)-1-{7-[5-(2H-Pyrazol-3-yl)-pyridin-2-yloxy]-quinolin-3-ylmethyl}-pyrrolidin-3-ol]	8.77	6.64
CCC(=O)N1CCN(Cc2cnc3cc(Oc4ccc(-c5ccn[nH]5)cn4)ccc3c2)CC1 [Example 14, 1-(4-{7-[5-(2H-Pyrazol-3-yl)-pyridin-2-yloxy]-quinolin-3-ylmethyl}-piperazin-1-yl)-propan-1-one]	9.36	7.07
COCC(=O)N1CCN(Cc2cnc3cc(Oc4ccc(-c5ccn[nH]5)cn4)ccc3c2)CC1 [Example 4, 2-Methoxy-1-(4-{7-[5-(2H-pyrazol-3-yl)-pyridin-2-yloxy]-quinolin-3-ylmethyl}-piperazin-1-yl)-ethanone]	8.85	6.77
CN(C(=O)CO)C1CCN(Cc2cnc3cc(Oc4ccc(-c5ccn[nH]5)cn4)ccc3c2)CC1 [Example 15, 2-Hydroxy-N-methyl-N-(1-{7-[5-(2H-pyrazol-3-yl)-pyridin-2-yloxy]-quinolin-3-ylmethyl}-piperidin-4-yl)-acetamide]	8.46	6.42
O=C1[C@@H](O)CCN1C1CCN(Cc2cnc3cc(Oc4ccc(-c5ccn[nH]5)cn4)ccc3c2)CC1 [Example 5, (S)-3-Hydroxy-1-(1-{7-[5-(2H-pyrazol-3-yl)-pyridin-2-yloxy]-quinolin-3-ylmethyl}-piperidin-4-yl)-pyrrolidin-2-one]	8.59	6.43
CC1(O)CN(Cc2cnc3cc(Oc4ccc(-c5ccn[nH]5)cn4)ccc3c2)C1 [Example 8, 3-Methyl-1-{7-[5-(2H-pyrazol-3-yl)-pyridin-2-yloxy]-quinolin-3-ylmethyl}-azetidin-3-ol]	8.62	6.39
CC(=O)N1CCN(Cc2cnc3cc(Oc4ccc(-c5ccn[nH]5)cn4)ccc3c2)CC1 [Example 2, 1-(4-{7-[5-(2H-Pyrazol-3-yl)-pyridin-2-yloxy]-quinolin-3-ylmethyl}-piperazin-1-yl)-ethanone]	9.22	6.82
OC1CCN(Cc2cnc3cc(Oc4ccc(-c5ccn[nH]5)cn4)ccc3c2)CC1 [Example 7, l-{7-[5-(2H-Pyrazol-3-yl)-pyridin-2-yloxy]-quinolin-3-ylmethyl}-piperidin-4-ol]	8.43	6.30
CC(=O)N1CC(CN(C)Cc2cnc3cc(Oc4ccc(-c5ccn[nH]5)cn4)ccc3c2)C1 [Example 16, 1-{3-[(Methyl-{7-[5-(2H-pyrazol-3-yl)-pyridin-2-yloxy]-quinolin-3-ylmethyl}-amino)-methyl]-azetidin-1-yl}-ethanone]	8.96	6.96
CN(Cc1cnc2cc(Oc3ccc(-c4ccn[nH]4)cn3)ccc2c1)[C@@H]1CCN(C(=O)CO)C1 [Example 9, 2-Hydroxy-1-[(R)-3-(methyl-{7-[5-(2H-pyrazol-3-yl)-pyridin-2-yloxy]-quinolin-3-ylmethyl}-amino)-pyrrolidin-1-yl]-ethanone]	9.06	6.82
OC1CN(Cc2cnc3cc(Oc4ccc(-c5ccn[nH]5)cn4)ccc3c2)C1 [Example 3, 1-{7-[5-(2H-Pyrazol-3-yl)-pyridin-2-yloxy]-quinolin-3-ylmethyl}-azetidin-3-ol]	8.40	6.37
CN(C(=O)CO)[C@H]1CCN(Cc2cnc3cc(Oc4ccc(-c5ccn[nH]5)cn4)ccc3c2)C1 [Example 11, 2-Hydroxy-N-methyl-N-((S)-1-{7-[5-(2H-pyrazol-3-yl)-pyridin-2-yloxy]-quinolin-3-ylmethyl}-pyrrolidin-3-yl)-acetamide]	8.59	6.60
O=C(C1CC1)N1CCN(Cc2cnc3cc(Oc4ccc(-c5ccn[nH]5)cn4)ccc3c2)CC1 [Example 22, Cyclopropyl-(4-{7-[5-(2H-pyrazol-3-yl)-pyridin-2-yloxy]-quinolin-3-ylmethyl}-piperazin-1-yl)-methanone]	9.03	6.64
O[C@H]1CCN(Cc2cnc3cc(Oc4ccc(-c5ccn[nH]5)cn4)ccc3c2)C1 [Example 13, (S)-1-{7-[5-(2H-Pyrazol-3-yl)-pyridin-2-yloxy]-quinolin-3-ylmethyl)-pyrrolidin-3-ol]	8.60	6.66
O=C(CO)N1CCN(Cc2cnc3cc(Oc4ccc(-c5ccn[nH]5)cn4)ccc3c2)CC1 [Example 1, 2-Hydroxy-1-(4-{7-[5-(2H-pyrazol-3-yl)-pyridin-2-yloxy]-quinolin-3-ylmethyl}-piperazin-1-yl)-ethanone]	9.16	6.80
CN(C)C(=O)C1CCN(Cc2cnc3cc(Oc4ccc(-c5ccn[nH]5)cn4)ccc3c2)CC1 [Example 19, 1-{7-[5-(2H-Pyrazol-3-yl)-pyridin-2-yloxy]-quinolin-3-ylmethyl}-piperidine-4-carboxylic acid dimethylamide]	8.82	6.32
C[C@H](O)C(=O)N1CCN(Cc2cnc3cc(Oc4ccc(-c5ccn[nH]5)cn4)ccc3c2)CC1 [Example 18]	8.96	6.74
CC(C)(C)C(=O)N1CCN(Cc2cnc3cc(Oc4ccc(-c5ccn[nH]5)cn4)ccc3c2)CC1 [Example 21, 2,2-Dimethyl-1-(4-{7-[5-(2H-pyrazol-3-yl)-pyridin-2-yloxy]-quinolin-3-ylmethyl}-piperazin-1-yl)-propan-1-one]	8.77	6.13
CC(C)(O)C(=O)N1CCN(Cc2cnc3cc(Oc4ccc(-c5ccn[nH]5)cn4)ccc3c2)CC1 [Example 20, 2-Hydroxy-2-methyl-1-(4-{7-[5-(2H-pyrazol-3-yl)-pyridin-2-yloxy]-quinolin-3-ylmethyl)-piperazin-1-yl)-propan-1-one]	8.80	6.64
O=C1OCCN1C1CCN(Cc2cnc3cc(Oc4ccc(-c5ccn[nH]5)cn4)ccc3c2)CC1 [Example 6, 3-(1-{7-[5-(2H-Pyrazol-3-yl)-pyridin-2-yloxy]-quinolin-3-ylmethyl}-piperidin-4-yl)-oxazolidin-2-one]	8.72	6.57
CN(Cc1cnc2cc(Oc3ccc(-c4ccn[nH]4)cn3)ccc2c1)[C@H]1CCN(C(=O)CO)C1 [Example 10, 2-Hydroxy-1-[(S)-3-(methyl-{7-[5-(2H-pyrazol-3-yl)-pyridin-2-yloxy]-quinolin-3-ylmethyl}-amino)-pyrrolidin-1-yl]-ethanone]	8.89	6.85
CC(C)C(=O)N1CCN(Cc2cnc3cc(Oc4ccc(-c5ccn[nH]5)cn4)ccc3c2)CC1 [Example 23]	9.27	6.80
